# According to patent US20250009777A1 (priority 2021, published 2025):
# Like-named read-outs stand apart in the source and are kept apart here.
# Tests used:
# DENV2 [1] = test: Library screening for inhibition of cell death of flavivirus-infected cells; assay type: cell-based, dengue virus; details: compound library screening
# Procedure: Using the compounds of a compound library based on nucleic acid compounds held by the Center for Research and Education on Drug Discovery, Hokkaido University, National University Corporation as test samples, screening was conducted for compounds having an effect in inhibiting cell death of cells infected with a flavivirus. DENV2 was used as the flavivirus.
# DENV1 = test: microbe, parasite or virus in culture; assay type: cell-based; details: Dengue virus, DENV1, BHK-21, 120 h
# DENV2 [2] = test: microbe, parasite or virus in culture; assay type: cell-based; details: Dengue virus, DENV2, BHK-21, 96 h
# DENV3 = test: microbe, parasite or virus in culture; assay type: cell-based; details: Dengue virus, DENV3, BHK-21, 120 h
# DENV4 = test: microbe, parasite or virus in culture; assay type: cell-based; details: Dengue virus, DENV4, BHK-21, 120 h
# ZIKV = test: microbe, parasite or virus in culture; assay type: cell-based; details: Zika virus, BHK-21, 72 h
# YFV = test: microbe, parasite or virus in culture; assay type: cell-based; details: Yellow fever virus, BHK-21, 72 h
# JEV = test: microbe, parasite or virus in culture; assay type: cell-based; details: Japanese encephalitis virus, BHK-21, 72 h
# WNV = test: microbe, parasite or virus in culture; assay type: cell-based; details: West Nile virus, BHK-21, 72 h
# CHIKV = test: microbe, parasite or virus in culture; assay type: cell-based; details: Chikungunya virus, BHK-21
# HCoV-229E = test: microbe, parasite or virus in culture; assay type: cell-based; details: Human coronavirus 229E, MRC5
# HCoV-OC43 = test: microbe, parasite or virus in culture; assay type: cell-based, Human Coronavirus; details: Betacoronavirus 1, OC43, MRC5
# [3] = tested on: coronaviruses, flaviviruses and togaviruses; assay type: cell-based
# [4] = tested on: AG129 mouse-adapted DENV2; assay type: in vivo, mice; details: for Survival rate: death = bodyweight below 70%; for day post virus infection until which all of the mice survived: death = bodyweight below 80% of initial, FIG. 2A
# in vitro [5] = details: Syrian hamster
# in vitro [6] = details: human
# SARS-CoV-2 Wuhan strain = test: Antiviral activity against SARS-CoV-2 Wuhan strain, same manner as Example 1; assay type: cell-based; details: for SI: CC50 relative to EC50
# [7] = Cytotoxicity (CC50) of structural analogs, Table 4; assay type: cell-based; details: cell line not stated
# Procedure: Measurement of the antiviral activity was conducted in the same manner as Example 1. […] Among these compounds, compounds (A2), (A4) and (A6) had satisfactory differences in the ECso and CCso concentration levels, indicating particular promise as antiviral agents.
# [8] = Severe acute respiratory syndrome coronavirus 2
molecule,measurement,setting,value
O=c1ccn([C@@H]2O[C@H](CO)[C@@H](O)[C@H]2O)c(=S)[nH]1 [2-thiouridine],antiviral activity (inhibiting cell death of infected cells),DENV2 [1],exhibited antiviral activity
same,EC50,DENV1,2.4 µM
same,EC50,DENV2 [2],1.5 µM
same,EC50,DENV3,2 µM
same,EC50,DENV4,1.7 µM
same,EC50,ZIKV,5 µM
same,EC50,YFV,2.9 µM
same,EC50,JEV,4.8 µM
same,EC50,WNV,5.3 µM
same,EC50,CHIKV,8.2 µM
same,EC50,HCoV-229E,0.77 µM
same,EC50,HCoV-OC43,13 µM
same,relative viral RNA level,[3],decreased
same,survival rate for the virus-infected mice,"[4]; 50 mg/kg (n=8) and 150 mg/kg (n=9) groups compared with vehicle, in words",increased in a dosage-dependent manner
same,Survival rate,"[4]; 50 mg/kg oral twice per day, n = 8, day 0 post infection",100%
same,Survival rate,"[4]; 50 mg/kg oral twice per day, n = 8, day 1 post infection",100%
same,Survival rate,"[4]; 50 mg/kg oral twice per day, n = 8, day 2 post infection",100%
same,Survival rate,"[4]; 50 mg/kg oral twice per day, n = 8, day 3 post infection",100%
same,Survival rate,"[4]; 50 mg/kg oral twice per day, n = 8, day 4 post infection",100%
same,Survival rate,"[4]; 50 mg/kg oral twice per day, n = 8, day 5 post infection",100%
same,Survival rate,"[4]; 50 mg/kg oral twice per day, n = 8, day 6 post infection",100%
same,Survival rate,"[4]; 50 mg/kg oral twice per day, n = 8, day 7 post infection",100%
same,Survival rate,"[4]; 50 mg/kg oral twice per day, n = 8, day 8 post infection",100%
same,Survival rate,"[4]; 50 mg/kg oral twice per day, n = 8, day 9 post infection",100%
same,Survival rate,"[4]; 50 mg/kg oral twice per day, n = 8, day 10 post infection",100%
same,Survival rate,"[4]; 50 mg/kg oral twice per day, n = 8, day 11 post infection",75%
same,Survival rate,"[4]; 50 mg/kg oral twice per day, n = 8, day 12 post infection",50%
same,Survival rate,"[4]; 50 mg/kg oral twice per day, n = 8, day 13 post infection",37.5%
same,Survival rate,"[4]; 50 mg/kg oral twice per day, n = 8, day 14 post infection",37.5%
same,Survival rate,"[4]; 50 mg/kg oral twice per day, n = 8, day 15 post infection",0%
same,day post virus infection until which all of the mice survived,"[4]; 50 mg/kg orally twice per day for 5 days, n=3",12 days
same,Survival rate,"[4]; 150 mg/kg oral twice per day, n = 9, day 0 post infection",100%
same,Survival rate,"[4]; 150 mg/kg oral twice per day, n = 9, day 1 post infection",100%
same,Survival rate,"[4]; 150 mg/kg oral twice per day, n = 9, day 2 post infection",100%
same,Survival rate,"[4]; 150 mg/kg oral twice per day, n = 9, day 3 post infection",100%
same,Survival rate,"[4]; 150 mg/kg oral twice per day, n = 9, day 4 post infection",100%
same,Survival rate,"[4]; 150 mg/kg oral twice per day, n = 9, day 5 post infection",100%
same,Survival rate,"[4]; 150 mg/kg oral twice per day, n = 9, day 6 post infection",100%
same,Survival rate,"[4]; 150 mg/kg oral twice per day, n = 9, day 7 post infection",100%
same,Survival rate,"[4]; 150 mg/kg oral twice per day, n = 9, day 8 post infection",100%
same,Survival rate,"[4]; 150 mg/kg oral twice per day, n = 9, day 9 post infection",100%
same,Survival rate,"[4]; 150 mg/kg oral twice per day, n = 9, day 10 post infection",100%
same,Survival rate,"[4]; 150 mg/kg oral twice per day, n = 9, day 11 post infection",88.89%
same,Survival rate,"[4]; 150 mg/kg oral twice per day, n = 9, day 12 post infection",88.89%
same,Survival rate,"[4]; 150 mg/kg oral twice per day, n = 9, day 13 post infection",66.67%
same,Survival rate,"[4]; 150 mg/kg oral twice per day, n = 9, day 14 post infection",66.67%
same,Survival rate,"[4]; 150 mg/kg oral twice per day, n = 9, day 15 post infection",66.67%
same,Survival rate,"[4]; 150 mg/kg oral twice per day, n = 9, day 16 post infection",66.67%
same,day post virus infection until which all of the mice survived,"[4]; 150 mg/kg orally twice per day for 5 days, n=4",15 days
same,CC50,in vitro [5],> 50 µM
same,CC50,in vitro [6],> 50 µM
"2′,3′-O-isopropylidene-5′-O-isobutyryl-2-thiouridine [Compound A6]",EC50,SARS-CoV-2 Wuhan strain,3.93 µM
same,SI,SARS-CoV-2 Wuhan strain,4.9
same,CC50,[7],19.4 µM
"2′,3′-O-isopropylidene-5′-O-propynyl-2-thiouridine [Compound A5]",EC50,SARS-CoV-2 Wuhan strain,7.56 µM
same,SI,SARS-CoV-2 Wuhan strain,1.6
same,CC50,[7],11.9 µM
O=c1ccn(C2O[C@H](CO)[C@@H](O)[C@H]2O)c(=NO)[nH]1 (stereo partly drawn) [Compound A4],SI,SARS-CoV-2 Wuhan strain,7.5
same,EC50,SARS-CoV-2 Wuhan strain; [8],0.81 µM
same,CC50,[7],6.04 µM
CSc1nc(=O)ccn1C1O[C@H](CO)[C@@H](O)[C@H]1O (stereo partly drawn) [Compound A3],SI,SARS-CoV-2 Wuhan strain,1.2
same,EC50,SARS-CoV-2 Wuhan strain; [8],4.67 µM
same,CC50,[7],5.48 µM
"O=c1ccn([C@@H]2O[C@H](CO)[C@@H](O)[C@H]2O)c(=[Se])[nH]1 [Compound A2, 2-selenouridine]",SI,SARS-CoV-2 Wuhan strain,>2.7
same,EC50,SARS-CoV-2 Wuhan strain; [8],7.37 µM
same,CC50,[7],> 20 µM
